The record followed here is patent US9670227B2, “Thienopyrimidine derivatives, a process for their preparation and pharmaceutical compositions containing them” (LES LABORATOIRES SERVIER, priority 2013, dated 2017).

The subject of experiment [1] is H929 multiple myeloma tumour line. Briefly: In vitro cytotoxicity, Microculture Tetrazolium Assay. It counts as cell-based. The procedure:
The cytotoxicity studies were carried out on the H929 multiple myeloma tumour line.
The cells are distributed onto microplates and exposed to the test compounds for 48 hours.

Another experiment concerns the target Mcl-1 protein (UniProtKB primary accession number: Q07820) (Homo sapiens, UniProt Q07820). Put plainly: Inhibition of Mcl-1 by fluorescence polarisation, Method 1. The experiment is classed as binding. The note with it: read-out: IC50 (M) Mcl-1 FP. The method in brief:
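Buffer of 10 mM HEPES pH 7.4 with 150 mM NaCl and 0.05% Tween 20 held 5 nM Mcl-1 and 1 nM fluorescein-tagged ligand (final). Compounds were tested as 11-point serial dilutions at 5% final DMSO, and binding was read by FP.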
In general terms: Fluorescence polarisation rises when a labelled molecule tumbles more slowly, as on binding a larger partner.

[2] abbreviates: fluorescence polarisation test, Method 2 values are underlined in the patent (underlining not visible here).
[3] abbreviates: Homo sapiens, NCI-H929, 48 h, H929 cells, 48 hours exposure, MTT, read-out: IC50 (μM) MTT H929.
Setting [4] is: fluorescence polarisation, Method 1, or Method 2.

Where two headings read alike, the source gives them in different places.

In general, IC50 refers to the concentration at which inhibition is half-maximal.

Sequence of Mcl-1 protein (Q07820 whole entry): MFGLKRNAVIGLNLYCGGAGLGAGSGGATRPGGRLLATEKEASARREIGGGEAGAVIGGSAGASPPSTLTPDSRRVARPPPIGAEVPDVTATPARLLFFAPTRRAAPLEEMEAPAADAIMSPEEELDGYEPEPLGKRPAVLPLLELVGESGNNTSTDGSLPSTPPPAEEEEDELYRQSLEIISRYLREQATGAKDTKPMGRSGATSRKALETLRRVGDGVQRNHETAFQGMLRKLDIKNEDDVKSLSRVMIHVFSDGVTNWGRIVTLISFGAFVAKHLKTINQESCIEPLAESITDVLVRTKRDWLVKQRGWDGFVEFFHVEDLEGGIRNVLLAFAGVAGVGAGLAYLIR

Regarding `Cc1c(-c2c(-c3ccco3)sc3ncnc(OC(Cc4ccccc4F)C(=O)O)c23)ccc(OCCN2CCN(C)CC2)c1Cl` [Example 341, (2S)-2-{[(5Ra)-5-{3-chloro-2-methyl-4-[2-(4-methylpiperazin-1-yl)ethoxy]phenyl}-6-(furan-2-yl)thieno[2,3-d]pyrimidin-4-yl]oxy}-3-(2-fluorophenyl)propanoic acid], the IC50 in experiment [1] (H929 cells, 48 hours exposure, MTT, read-out: IC50 (μM) MTT H929) came to 0.706 µM; on Mcl-1 protein (setting [2]) it was 3.5e-08 M.
With `CCCCn1nccc1COc1ccccc1CC(Oc1ncnc2sc(-c3ccc(F)cc3)c(-c3ccc(OCCN(C)C)c(Cl)c3C)c12)C(=O)O` [Example 133, (2R)-3-{2-[(1-butyl-1H-pyrazol-5-yl)methoxy]phenyl}-2-{[(5Sa)-5-{3-chloro-4-[2-(dimethylamino)ethoxy]-2-methylphenyl}-6-(4-fluorophenyl)thieno[2,3-d]pyrimidin-4-yl]oxy}propanoic acid], the values for the IC50 (in experiment [1] (setting [3]); at Mcl-1 protein (setting [2])) were 0.099 µM and 3.4e-09 M, respectively.
Regarding `CCCCn1nccc1COc1ccccc1CC(Oc1ncnc2sc(-c3ccc(OCCN4CCOCC4)nc3)c(-c3ccc(OCCN4CCN(C)CC4)c(Cl)c3C)c12)C(=O)O` [Example 621, (2R)-3-{2-[(1-butyl-1H-pyrazol-5-yl)methoxy]phenyl}-2-[((5Sa)-5-{3-chloro-2-methyl-4-[2-(4-methylpiperazin-1-yl)ethoxy]phenyl}-6-{6-[2-(morpholin-4-yl)ethoxy]pyridin-3-yl}thieno[2,3-d]pyrimidin-4-yl)oxy]propanoic acid], the IC50 in experiment [1] (setting [3]) is 0.095 µM; on Mcl-1 protein (setting [4]), 5.3e-09 M.
As to `Cc1c(-c2c(-c3ccc(Cl)o3)sc3ncnc(OC(Cc4ccccc4OCc4ccccn4)C(=O)O)c23)ccc(OCCN2CCN(C)CC2)c1Cl` [Example 366, (2R)-2-{[6-(5-chlorofuran-2-yl)-(5Sa)-5-{3-chloro-2-methyl-4-[2-(4-methylpiperazin-1-yl)ethoxy]phenyl}thieno[2,3-d]pyrimidin-4-yl]oxy}-3-[2-(pyridin-2-ylmethoxy)phenyl]propanoic acid], the IC50 stood at 0.346 µM in experiment [1] (setting [3]) and 8.6e-09 M on Mcl-1 protein (setting [2]).
Regarding `Cc1ccc(-c2sc3ncnc(OC(Cc4ccccc4)C(=O)O)c3c2-c2ccc(OCCN3CCN(C)CC3)c(Cl)c2C)o1` [Example 499, (2R)-2-{[(5Sa)-5-{3-chloro-2-methyl-4-[2-(4-methylpiperazin-1-yl)ethoxy]phenyl}-6-(5-methylfuran-2-yl)thieno[2,3-d]pyrimidin-4-yl]oxy}-3-phenylpropanoic acid], the IC50 was 1.5 µM in experiment [1] (setting [3]) and 1e-07 M at Mcl-1 protein (setting [4]).
Take `Cc1c(-c2c(-c3ccc(F)cc3)sc3ncnc(OC(Cc4ccccc4OCc4ccn(CC5CCCCC5)n4)C(=O)O)c23)ccc(OCCN2CCN(C)CC2)c1Cl` [Example 15, (2R)-2-{[(5Sa)-5-{3-chloro-2-methyl-4-[2-(4-methylpiperazin-1-yl)ethoxy]phenyl}-6-(4-fluorophenyl)thieno[2,3-d]pyrimidin-4-yl]oxy}-3-(2-{[1-(cyclohexylmethyl)-1H-pyrazol-3-yl]methoxy}phenyl)propanoic acid]: the IC50 came out at 0.494 µM in experiment [1] (setting [3]) and 3.7e-08 M on Mcl-1 protein (setting [2]).
As for `COc1cc(F)ccc1CC(Oc1ncnc2sc(-c3ccc(Cl)o3)c(-c3ccc(OCCN4CCN(C)CC4)c(Cl)c3C)c12)C(=O)O` [Example 718, (2R)-2-{[6-(5-chlorofuran-2-yl)-(5Sa)-5-{3-chloro-2-methyl-4-[2-(4-methylpiperazin-1-yl)ethoxy]phenyl}thieno[2,3-d]pyrimidin-4-yl]oxy}-3-(4-fluoro-2-methoxyphenyl)propanoic acid], the IC50 in experiment [1] (setting [3]) was found to be 0.082 µM; at Mcl-1 protein (setting [4]) it was 1.2e-08 M.
As to `Cc1c(-c2c(-c3ccco3)sc3ncnc(OC(Cc4ccccc4NC(=O)OC(C)(C)C)C(=O)O)c23)ccc(OCCN2CCN(C)CC2)c1Cl` [Example 358, (2R)-3-{2-[(tert-butoxycarbonyl)amino]phenyl}-2-{[(5Sa)-5-{3-chloro-2-methyl-4-[2-(4-methylpiperazin-1-yl)ethoxy]phenyl}-6-(furan-2-yl)thieno[2,3-d]pyrimidin-4-yl]oxy}propanoic acid], the IC50 in experiment [1] (setting [3]) is 1.61 µM; at Mcl-1 protein (setting [2]), 9.5e-09 M.
For `Cc1c(-c2c(-c3ccco3)sc3ncnc(OC(Cc4ccccc4OCc4cncnc4)C(=O)O)c23)ccc(OCCN2CCN(C)CC2)c1Cl` [Example 277, (2R)-2-{[(5Sa)-5-{3-chloro-2-methyl-4-[2-(4-methylpiperazin-1-yl)ethoxy]phenyl}-6-(furan-2-yl)thieno[2,3-d]pyrimidin-4-yl]oxy}-3-[2-(pyrimidin-5-ylmethoxy)phenyl]propanoic acid], the values for the IC50 (in experiment [1] (setting [3]); at Mcl-1 protein (setting [2])) were 0.07 µM and 4.8e-09 M, respectively.
Take `COc1ccc(F)cc1CC(Oc1ncnc2sc(-c3ccco3)c(-c3ccc(OCCN4CCN(C)CC4)c(Cl)c3C)c12)C(=O)O` [Example 345, (2R)-2-{[(5Sa)-5-{3-chloro-2-methyl-4-[2-(4-methylpiperazin-1-yl)ethoxy]phenyl}-6-(furan-2-yl)thieno[2,3-d]pyrimidin-4-yl]oxy}-3-(5-fluoro-2-methoxyphenyl)propanoic acid]: the concentration for half-maximal inhibition (IC50) came to 0.322 µM in experiment [1] (setting [3]) and 8.6e-09 M on Mcl-1 protein (setting [2]).
Turning to `CCc1sc2ncnc(OC(Cc3ccccc3)C(=O)O)c2c1-c1cc(N)c(OCCN2CCN(C)CC2)c(Cl)c1C` [Example 437, (2R)-2-[((5Sa)-5-{5-amino-3-chloro-2-methyl-4-[2-(4-methylpiperazin-1-yl)ethoxy]phenyl}-6-ethylthieno[2,3-d]pyrimidin-4-yl)oxy]-3-phenylpropanoic acid], the results for the IC50 (in experiment [1] (setting [3]); at Mcl-1 protein (setting [4])) were 20.3 µM and 4.5e-08 M, respectively.
On to `Cc1c(-c2c(-c3ccc(F)cc3)sc3ncnc(OC(Cc4ccccc4OCc4ccnn4CCC(C)C)C(=O)O)c23)ccc(OCCN2CCN(C)CC2)c1Cl` [Example 82, (2R)-2-{[(5Sa)-5-{3-chloro-2-methyl-4-[2-(4-methylpiperazin-1-yl)ethoxy]phenyl}-6-(4-fluorophenyl)thieno[2,3-d]pyrimidin-4-yl]oxy}-3-(2-{[1-(3-methylbutyl)-1H-pyrazol-5-yl]methoxy}phenyl)propanoic acid], for which the IC50 in experiment [1] (setting [3]) was determined as 0.078 µM; on Mcl-1 protein (setting [2]), 5.1e-09 M.
`C#CCOc1ccccc1CC(Oc1ncnc2sc(-c3ccco3)c(-c3ccc(OCCN4CCN(C)CC4)c(Cl)c3C)c12)C(=O)O` [Example 216, (2R)-2-{[(5Sa)-5-{3-chloro-2-methyl-4-[2-(4-methylpiperazin-1-yl)ethoxy]phenyl}-6-(furan-2-yl)thieno[2,3-d]pyrimidin-4-yl]oxy}-3-[2-(prop-2-yn-1-yloxy)phenyl]propanoic acid]: the values for the IC50 (in experiment [1] (setting [3]); on Mcl-1 protein (setting [2])) were 0.217 µM and 8.5e-09 M, respectively.
Taken in the same sequence, the figures for `COCCOc1cc(COc2ccccc2CC(Oc2ncnc3sc(-c4ccc(F)cc4)c(-c4ccc(OCCN5CCN(C)CC5)c(Cl)c4C)c23)C(=O)O)ccn1` [Example 22, (2R)-2-{[(5Sa)-5-{3-chloro-2-methyl-4-[2-(4-methylpiperazin-1-yl)ethoxy]phenyl}-6-(4-fluorophenyl)thieno[2,3-d]pyrimidin-4-yl]oxy}-3-(2-{[2-(2-methoxyethoxy)pyridin-4-yl]methoxy}phenyl)propanoic acid] were 0.092 µM and 8.3e-09 M.
For the compound `COc1ccccc1C[C@@H](Oc1ncnc2sc(-c3ccc(F)cc3)c(-c3cc(F)c(OCCN4CCN(C)CC4)c(Cl)c3C)c12)C(=O)O` (single isomer, unassigned) [Example 664], the IC50 is 2.08 µM in experiment [1] (Homo sapiens, NCI-H929, 48 h, read-out: IC50 (μM) MTT H929, H929 cells, 48 hours exposure, MTT) and 3.86e-08 M on Mcl-1 protein (setting [4]).
